Experimental data reported in ChEMBL document CHEMBL4680141, “Novel benzimidazole-acrylonitrile hybrids and their derivatives: Design, synthesis and antimycobacterial activity” (2020).
Values after ≈ are worked out from the molar mass of the structure shown.

What was measured:
Format in all cases: functional
[1] = system: Mycobacterium tuberculosis; assay: Antimycobacterial activity against Mycobacterium tuberculosis H37Rv assessed as inhibition of bacterial growth incubated for 7 days by MABA assay; settings: 168 h, time 7 day
[2] = system: Mycobacterium tuberculosis; assay: Antimycobacterial activity against dormant form of Mycobacterium tuberculosis H37Rv assessed as log fold reduction in bacterial count at 10 ug/ml under nutrient starvation condition after 7 days by MPN assay; settings: dose 10 µg/ml; time 7 day
[3] = system: Mycobacterium tuberculosis; assay: Antimycobacterial activity against Mycobacterium tuberculosis H37Rv assessed as inhibition of bacterial growth by MABA assay

| Structure (SMILES) | MIC [1] | FC [2] | MIC [3] |
| --- | --- | --- | --- |
| N#C/C(=C\c1ccc(N2CCN(Cc3ccc(F)cc3)CC2)cc1)c1nc2ccccc2[nH]1 | 25 µg/mL (≈ 57.1 µM) |  |  |
| N#C/C(=C\c1ccc(N2CCN(c3ccccc3)CC2)cc1)c1nc2ccccc2[nH]1 | 6.25 µg/mL (≈ 15.4 µM) |  |  |
| NNC(=O)c1ccncc1 [ISONIAZID] | 0.05 µg/mL (≈ 0.365 µM) | 1.5 |  |
| Cc1ccc(N2CCN(c3ccc(/C=C(\C#N)c4nc5ccccc5[nH]4)cc3)CC2)cc1 | 0.78 µg/mL (≈ 1.86 µM) | 2.8 |  |
| N#CC(Cc1ccc(N2CCN(c3ccccc3)CC2)cc1)c1nc2ccccc2[nH]1 (stereo not given) | > 25 µg/mL |  |  |
| COc1c(N2C[C@@H]3CCCN[C@@H]3C2)c(F)cc2c(=O)c(C(=O)O)cn(C3CC3)c12 [MOXIFLOXACIN] |  | 1.5 |  |
| N#C/C(=C\c1ccc(N2CCN(c3cccc(Cl)c3)CC2)cc1)c1nc2ccccc2[nH]1 | > 25 µg/mL |  |  |
| COc1cccc(N2CCN(c3ccc(/C=C(\C#N)c4nc5ccccc5[nH]4)cc3)CC2)c1 | > 25 µg/mL |  |  |
| N#C/C(=C\c1ccc(N2CCN(c3ccc(F)cc3)CC2)cc1)c1nc2ccccc2[nH]1 | > 25 µg/mL |  |  |
| N#C/C(=C\c1ccc(N2CCN(Cc3ccccc3)CC2)cc1)c1nc2ccccc2[nH]1 | > 25 µg/mL |  |  |
| CO[C@H]1/C=C/O[C@@]2(C)Oc3c(C)c(O)c4c(O)c(c(/C=N/N5CCN(C)CC5)c(O)c4c3C2=O)NC(=O)/C(C)=C\C=C\[C@H](C)[C@H](O)[C@@H](C)[C@@H](O)[C@@H](C)[C@H](OC(C)=O)[C@@H]1C [RIFAMPIN] | 0.1 µg/mL (≈ 0.122 µM) | 1.5 |  |
| O=C(O)c1cn(C2CC2)c2cc(N3CCNCC3)c(F)cc2c1=O [CIPROFLOXACIN] |  | 1.5 |  |
| N#C/C(=C\c1ccc(N2CCN(c3ccc(Cl)cc3)CC2)cc1)c1nc2ccccc2[nH]1 | > 25 µg/mL |  |  |
| Cc1ccc(N2CCN(c3ccc(CC(C#N)c4nc5ccccc5[nH]4)cc3)CC2)cc1 (stereo not given) | > 25 µg/mL |  |  |
| N#C/C(=C\c1ccccc1)n1nnc2ccccc21 |  |  | 6.25 µg/mL (≈ 25.4 µM) |
| CC(=O)N1CCN(c2ccc(/C=C(\C#N)c3nc4ccccc4[nH]3)cc2)CC1 | 12.5 µg/mL (≈ 33.7 µM) |  |  |
| N#C/C(=C\c1ccc(N2CCN(C3CCCCC3)CC2)cc1)c1nc2ccccc2[nH]1 | > 25 µg/mL |  |  |
| CN1CCN(c2ccc(/C=C(\C#N)c3nc4ccccc4[nH]3)cc2)CC1 | > 25 µg/mL |  |  |
| N#C/C(=C\c1ccc(N2CCN(c3ccc(Br)cc3)CC2)cc1)c1nc2ccccc2[nH]1 | > 25 µg/mL |  |  |
| CC[C@@H](CO)NCCN[C@@H](CC)CO [ETHAMBUTOL] | 1.56 µg/mL (≈ 7.64 µM) |  |  |
| COc1ccc(N2CCN(c3ccc(CC(C#N)c4nc5ccccc5[nH]4)cc3)CC2)cc1 (stereo not given) | > 25 µg/mL |  |  |
| COc1ccc(N2CCN(c3ccc(/C=C(\C#N)c4nc5ccccc5[nH]4)cc3)CC2)cc1 | 6.25 µg/mL (≈ 14.4 µM) |  |  |
